The source of these data is article PMC12162962, “The inhibitory potential of three scorpion venom peptides against multidrug-resistant Klebsiella pnemoniae” (Frontiers in Microbiology, 2025).

No end group written: not given here.

The nature of data set [1]: Stability of peptides in serum. Type of data set: in vitro ADME. To be noted: 2.0 mg/mL peptide, 37°C; for remaining at 16 h, 2 mg/mL: RP-HPLC peak area vs t0 (100%), mean of duplicates, read-out: Peptide remaining in solution after 16 h in serum. On the procedure:
Peptide stability in serum was performed as previously reported ([Russo et al., 2021]). Briefly, peptides were diluted in serum to a final concentration of 2.0 mg/mL and incubated at 37°C. Aliquots of each peptide taken at different times up to 16 h were analyzed by RP-HPLC on an Aeris PEPTIDE XB-C18 column (2.1 × 100 mm, 3.6 μm). Peptide concentrations in solution were determined from RP-HPLC peak areas compared to peak areas obtained at t0 (set as 100%).

The subject of the next data set is S. thyphimurium. The experiment in a line: Broth microdilution MIC/MBC. Type of data set: cell-based. To be noted: for MIC: broth microdilution, 1 × 10^5 CFU/mL, concentration inhibiting 95% bacterial growth, triplicate; for MBC: lowest concentration killing 99.9% of the bacterial load after 18 h at 37°C on MHA.
For another data set, the system named is K. pneumoniae ATCC 10031. As to the kind of experiment: Broth microdilution MIC/MBC. Format: cell-based, Klebsiella pneumoniae. As to conditions: reference strain ATCC 10031; for MIC: broth microdilution, 1 × 10^5 CFU/mL, concentration inhibiting 95% bacterial growth, triplicate; for MBC: lowest concentration killing 99.9% of the bacterial load after 18 h at 37°C on MHA. On the procedure: (§1) Antibacterial activity of peptides was conducted against a panel of bacterial strains both Gram-positive (Staphylococcus aureus ATCC 6538, Enterococcus faecalis ATCC 29212, Listeria monocytogenes MB 677), and Gram-negative (E. coli ATCC 11229, K. pneumoniae ATCC 10031, Pseudomonas aeruginosa O1, Burkordelia cepacea LGM16656). The analysis has been extended to clinical isolates of K. pneumoniae carbapenemases producers isolated and characterized at the Microbiology Laboratory of the University Hospital “Luigi Vanvitelli,” Naples, Italy, using a BD Phoenix M50 instrument (Becton, Dickinson and Company, Franklin Lakes, NJ, USA) and listed in Table 1. The test was carried out as reported elsewhere ([Folliero et al., 2022]). The final bacterial concentration inoculated in the 96-well plate was 1 × 10^5 CFU/mL. Vancomycin (5 μg/mL) and meropenem (10 μg/mL) (Burlington, MA, USA) were used as positive control (CTRL+) against Gram-positive and Gram-negative bacteria, respectively.
(§2) The concentration of peptides inhibiting 95% bacterial growth was recorded as MIC. After setting the MIC value, 50 μL were taken from the 2MIC, 1MIC, and ½ MIC and spotted on MHA. The plates were incubated for 18 h at 37°C. The number of colony-forming units was calculated, and MBC was recorded as the lowest concentration of peptide capable of killing 99.9% of the bacterial load after 18 h of incubation.

Data set [2] concerns Enterococcus faecalis ATCC 29212. As to the kind of experiment: Broth microdilution MIC/MBC. Format: cell-based. As to conditions: for MIC: broth microdilution, 1 × 10^5 CFU/mL, concentration inhibiting 95% bacterial growth, triplicate; for MBC: lowest concentration killing 99.9% of the bacterial load after 18 h at 37°C on MHA. On the procedure: as §1, §2
Data set [3] has as its system Burkordelia cepacea LGM16656 (B. cepacia). The experiment in a line: Broth microdilution MIC/MBC. Format: cell-based. As to conditions: for MIC: broth microdilution, 1 × 10^5 CFU/mL, concentration inhibiting 95% bacterial growth, triplicate. On the procedure: as §1, §2
The test system of data set [4] is Pseudomonas aeruginosa O1. As to the kind of experiment: Broth microdilution MIC/MBC. As to conditions: 1 × 10^5 CFU/mL, concentration inhibiting 95% bacterial growth, triplicate. Type of data set: cell-based. How it is done: as §1, §2
Data set [5] concerns Listeria monocytogenes MB 677. The experiment in a line: Broth microdilution MIC/MBC. To be noted: for MIC: broth microdilution, 1 × 10^5 CFU/mL, concentration inhibiting 95% bacterial growth, triplicate; for MBC: lowest concentration killing 99.9% of the bacterial load after 18 h at 37°C on MHA. Format: cell-based. How it is done:
as §1, §2

Data set [6] relates to Staphylococcus aureus ATCC 6538. The experiment in a line: Broth microdilution MIC/MBC. To be noted: for MIC: broth microdilution, 1 × 10^5 CFU/mL, concentration inhibiting 95% bacterial growth, triplicate; for MBC: lowest concentration killing 99.9% of the bacterial load after 18 h at 37°C on MHA. Type of data set: cell-based. On the procedure:
as §1, §2

A further data set deals with E. coli ATCC 11229. The experiment in a line: Broth microdilution MIC/MBC. Format: cell-based. To be noted: for MIC: broth microdilution, 1 × 10^5 CFU/mL, concentration inhibiting 95% bacterial growth, triplicate; for MBC: lowest concentration killing 99.9% of the bacterial load after 18 h at 37°C on MHA. How it is done: as §1, §2
In data set [7] the test system is K. pneumoniae 1746 (VIM, class B). The experiment in a line: Broth microdilution MIC/MBC, clinical isolate. Type of data set: cell-based, Klebsiella pneumoniae. To be noted: clinical isolate 1746, VIM; for MIC: rectal swab, broth microdilution, 95% growth inhibition. How it is done:
as §1, §2

The test system of data set [8] is HaCaT cell line (human keratinocytes cells). The experiment in a line: MTT cytotoxicity on HaCaT cells. Type of data set: cell-based. To be noted: 100 μM, 24 h. On the procedure: Peptides cytotoxicity was evaluated on the HaCaT cell line (human keratinocytes cells) obtained from the CLS–Cell Lines Service (Eppelheim, Germany). The cell monolayer was treated with different peptide concentrations from 3 to 100 μM for 24 h. Then, methylthiazolyldiphenyl-tetrazolium bromide (MTT) (Sigma-Aldrich, St. Louis, MO, USA) assay was performed as already reported ([Ambrosino et al., 2023]). Untreated cells represented positive control (CTRL+), while cells treated with 100% DMSO represented negative control (CTRL−). Absorbance was recorded at 570 nm, and cell viability was calculated with Equation 1:
(1) %ofcellviability=absorbanceoftreatedcells/absorbanceofuntreatedcellsx100

The subject of data set [9] is K. pneumoniae 1711 (KPC, class A). The experiment in a line: Broth microdilution MIC/MBC, clinical isolate. As to conditions: clinical isolate 1711, KPC; for MIC: rectal swab, broth microdilution, 95% growth inhibition. Format: cell-based, Klebsiella pneumoniae. How it is done:
as §1, §2

For data set [10], the system named is K. pneumoniae 1745 (KPC, class A). As to the kind of experiment: Broth microdilution MIC/MBC, clinical isolate. Format: cell-based, Klebsiella pneumoniae. To be noted: clinical isolate 1745, KPC; for MIC: ulcer, broth microdilution, 95% growth inhibition; for MBC: killing 99.9% after 18 h. How it is done: as §1, §2
Data set [11] concerns several strains of K. pneumoniae KPC-producers. As to the kind of experiment: MIC/MBC summarised over the clinical isolates. Type of data set: cell-based, Klebsiella pneumoniae. As to conditions: summary over strains 311, 1746, 1745, 1711. How it is done: as §1, §2
The subject of data set [12] is K. pneumoniae 311 (OXA-48, class D). The experiment in a line: Broth microdilution MIC/MBC, clinical isolate. Type of data set: cell-based, Klebsiella pneumoniae. On the procedure:
as §1, §2

For a further data set, the system named is K. pneumoniae. As to the kind of experiment: microbe, parasite or virus in culture. Format: cell-based, Klebsiella pneumoniae. How it is done:
To assess the combined effect of peptides and antibiotics, a checkerboard test was performed. An inoculum of K. pneumoniae at 2 × 10^5 CFU/mL was used for the assay. Serial dilutions of peptides and meropenem were executed, and 10 μL of peptide and antibiotic were added into the 96-well plate, individually and/or in combination. The plate was incubated for 24 h to 37°C and the combinatorial effect was calculated as an index of fractional inhibitory concentration (FICI) with the following formula ([Giugliano et al., 2023]).
FICI=MICmeropenem in combination/MICmeropenem+MICpeptide in combination/MICpeptide
• FICI ≤ 0.5, synergy. • 0.5 < FICI ≤ 1.0, partial synergy. • […], no interaction. • FICI > 4.0, antagonism.

FLSTIWNGIKSLL-NH2 [Pantinin 3]: in data set [1], the amount remaining at 16 h, 2 mg/mL is approximately 80%. The MIC in the data set on S. thyphimurium was 50 µM; against K. pneumoniae ATCC 10031, 25 µM; in [2], 25 µM; in [3], 50 µM; in [4], 50 µM; in data set [5], 25 µM. Moreover, the results for the MIC (in [6]; in the data set with E. coli ATCC 11229; in [7]) were 12.5 µM, 50 µM and 50 µM, respectively. Moreover, the MBC in data set [2] amounted to 25 µM. Besides, in data set [8], the Cell viability is given as 10%.
As to IFGAIWKGISSLL-NH2 [Pantinin 2], in data set [1], the amount remaining at 16 h, 2 mg/mL is approximately 70%. For the same molecule, the MIC with S. thyphimurium came out at 50 µM; in the data set on K. pneumoniae ATCC 10031, 12.5 µM; in data set [2] it was 12.5 µM; in data set [3] it was 50 µM; in [4] it was 50 µM; in data set [5] it was 6.25 µM. Further, the MIC was 12.5 µM in [6]; 25 µM against E. coli ATCC 11229; 50 µM in data set [9]; 25 µM in [7]; 50 µM in data set [10]. In addition, the MBC in the data set with S. thyphimurium came out at 50 µM; in the data set with K. pneumoniae ATCC 10031 it was 12.5 µM; in [2] it was 12.5 µM; in data set [5] it was 12.5 µM; in [6], 12.5 µM; in the data set with E. coli ATCC 11229 it was 25 µM. Besides, the MBC in data set [7] (killing 99.9% after 18 h) and in data set [10] was 50 µM throughout. This molecule also showed a Cell viability in [8] of 25%.
For the molecule GILGKLWEGFKSIV-NH2 [Pantinin 1], the “Stability in serum in the time interval analysed” value in data set [1] (up to 16 h, RP-HPLC peak area vs t0, duplicates) was “stable”. For the same molecule, the MIC turned out to be 50 µM in the data set with S. thyphimurium; 6.25 µM with K. pneumoniae ATCC 10031; 12.5 µM in data set [2]; 25 µM in [3]; 50 µM in data set [4]; 6.25 µM in [5]. The MIC in data set [6] was 6.25 µM; with E. coli ATCC 11229, 12.5 µM; in data set [9], 25 µM; in data set [12] (clinical isolate 311, OXA-48, rectal swab, broth microdilution, 95% growth inhibition) it was 25 µM; in [7], 25 µM; in data set [10], 25 µM. Further, the MBC with S. thyphimurium is 50 µM; in the data set on K. pneumoniae ATCC 10031, 12.5 µM; in data set [2], 25 µM; in data set [3] (lowest concentration killing 99.9% of the bacterial load after 18 h at 37°C on MHA), 25 µM; in data set [5] it was 12.5 µM; in [6], 6.25 µM. Also, the MBC with E. coli ATCC 11229 is 25 µM; in data set [9] (killing 99.9% after 18 h) it was 25 µM; in [12] (clinical isolate 311, OXA-48, killing 99.9% after 18 h) it was 25 µM; in data set [10], 25 µM. Further, the “MIC against the tested clinical K. pneumoniae strains” value in [11] stood at 25 µM. Also, the Cell viability entry in data set [8] is given as “approximately 70%”. Also, the FICI in the data set on K. pneumoniae (pantinin 1 (3 μM) with meropenem (0.62 μg/mL)) was determined as 0.624.
Take `C[C@@H](O)[C@H]1C(=O)N2C(C(=O)O)=C(S[C@@H]3CN[C@H](C(=O)N(C)C)C3)[C@H](C)[C@H]12` [meropenem]: in the data set on K. pneumoniae (Klebsiella pneumoniae, checkerboard, 2 × 10^5 CFU/mL, 24 h, 37°C, read-out: MIC of meropenem alone), the MIC came to 5 µg/mL. For the same molecule, the “MIC of meropenem in combination” value with K. pneumoniae (combined with 3 μM of pantinin 1, checkerboard, 24 h, 37°C) is 0.62 µg/mL.
